In patent US20250108048A1, “STING AGONIST COMPOUNDS AND CONJUGATES” (SUTRO BIOPHARMA, INC., priority 2023, published 2025):

How the values were obtained:
[1] = molecular target: T1, hSTING-R232 (Homo sapiens, UniProt Q86WV6, H232R); assay: THP1-Dual KI-hSTING-R232 reporter assay (IRF pathway, secreted Lucia luciferase); assay type: cell-based; conditions: THP1-Dual KI-hSTING-R232 cells, 24 hours; read-out: Reporter assay EC50 (nM) THP-1-R232
T1 construct: host or cells: THP1-Dual KI-hSTING-R232 (from THP1-Dual KO-STING)
Description: (§1) The activities of the STING agonists to activate human or mouse STING pathways were evaluated in THP-1-Dual™, THP1-Dual™ KI-hSTING-R232, THP1-Dual™ KI-hSTING-H232 Cells and THP1-Dual™ KI-mSTING Cells. THP-1-Dual™ cells contains hSTING-HAQ haplotype and can be used to evaluate the activity of STING agonists by monitoring the activation of NF-κB pathway and the […] (IFN regulatory factor) pathways. THP1-Dual™ KO-STING cells were generated from THP1-Dual™ cells by stable knockout of the endogenous HAQ STING gene. THP1-Dual™ KI-hSTING-R232 cells, THP1-Dual™ KI-hSTING-H232 cells and THP1-Dual™ KI-mSTING cells were generated by transfecting THP1-Dual™ KO-STING cells with hSTING-R232 or hSTING-H232 or mSTING. Stimulating these reporter cells with a STING agonist activates TRF pathway and induces the production of a secreted Lucia luciferase in the cell culture medium, which can be determined using QUANTI-Luc™ reagent.
(§2) THP-1-Dual™, THP1-Dual™ KI-hSTING-R232, THP1-Dual™ KI-hSTING-H232 and THP1-Dual™ KI-mSTING reporter cells were purchased from Invivogen and maintained in manufacture recommended culture medium with required supplemental antibiotics. On the day of assay, the cells were harvested with Accutase and counted by the Vi-CELL Cell Viability Analyzers. Cells were resuspended in HEK blue detection medium and a total of 10000 cells were seeded in each well of a 384-well flat bottom plate. […] After incubation at 37° C. in a CO2 incubator for 24 hours, 20 μl of cell culture medium per well was transferred into a 384-well white (opaque) plate. 50 μl of QUANTI-Luc™ assay solution was then added to each well and the plate was immediately transferred to an ENVISION® plate reader to measure luminescence (Perkin-Elmer). Relative luminescence readings were converted to fold change of signal using untreated cells as controls. Data was fitted with non-linear regression analysis, using log (agonist) vs. response, variable slope, 4-parameter fit equation using GraphPad Prism. Data was expressed as fold change in signal vs. dose of STING agonist in nM with error bars indicating the Standard Deviation (SD) of the quadruplicates. There result was reported in Table 2 as EC50 (the midpoint of the curve, or concentration at which […] of the maximum effect was observed).

[2] = molecular target: T2, hSTING H232 (Homo sapiens, UniProt Q86WV6); assay: Surface plasmon resonance, hSTING H232; assay type: binding; conditions: read-out: hSTING H232 SPR (Kd)
[3] = molecular target: T2, hSTING H232; assay: THP1-Dual KI-hSTING-H232 reporter assay (IRF pathway, secreted Lucia luciferase); assay type: cell-based; parameters: host or cells: THP1-Dual KI-hSTING-H232 (from THP1-Dual KO-STING); conditions: THP1-Dual KI-hSTING-H232 cells, 24 hours; read-out: Reporter assay EC50 (nM) THP-1-H232
Description: as §1, §2

[4] = molecular target: T3, mSTING (Mus musculus, UniProt Q3TBT3); assay: THP1-Dual KI-mSTING reporter assay; assay type: cell-based; parameters: host or cells: THP1-Dual KI-mSTING (from THP1-Dual KO-STING); conditions: THP1-Dual KI-mSTING cells, 24 hours; read-out: Reporter assay EC50 (nM) THP-1 mSTING
T3 sequence (Q3TBT3 1-378): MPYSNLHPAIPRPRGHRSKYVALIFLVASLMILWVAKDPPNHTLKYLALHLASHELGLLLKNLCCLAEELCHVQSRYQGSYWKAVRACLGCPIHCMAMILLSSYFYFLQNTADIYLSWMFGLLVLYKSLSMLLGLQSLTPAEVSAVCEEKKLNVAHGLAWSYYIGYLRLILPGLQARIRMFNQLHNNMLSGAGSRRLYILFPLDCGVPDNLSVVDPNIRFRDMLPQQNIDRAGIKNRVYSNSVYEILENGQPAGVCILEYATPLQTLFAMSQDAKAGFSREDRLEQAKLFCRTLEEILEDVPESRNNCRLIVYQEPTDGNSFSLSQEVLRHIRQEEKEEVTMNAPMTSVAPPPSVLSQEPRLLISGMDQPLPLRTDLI
Description: as §1
THP-1-Dual™, THP1-Dual™ KI-hSTING-R232, THP1-Dual™ KI-hSTING-H232 and THP1-Dual™ KI-mSTING reporter cells were purchased from Invivogen and maintained in manufacture recommended culture medium with required supplemental antibiotics. On the day of assay, the cells were harvested with Accutase and counted by the Vi-CELL Cell Viability Analyzers. Cells were resuspended in HEK blue detection medium and a total of 10000 cells were seeded in each well of a 384-well flat bottom plate. Serial dilutions of STING agonists free drugs (1:3 serial dilution starting from 5 uM) was added into treatment wells. After incubation at 37° C. in a CO2 incubator for 24 hours, 20 μl of cell culture medium per well was transferred into a 384-well white (opaque) plate. 50 μl of QUANTI-Luc™ assay solution was then added to each well and the plate was immediately transferred to an ENVISION® plate reader to measure luminescence (Perkin-Elmer). Relative luminescence readings were converted to fold change of signal using untreated cells as controls. Data was fitted with non-linear regression analysis, using log (agonist) vs. response, variable slope, 4-parameter fit equation using GraphPad Prism. Data was expressed as fold change in signal vs. dose of STING agonist in nM with error bars indicating the Standard Deviation (SD) of the quadruplicates. There result was reported in Table 2 as EC50 (the midpoint of the curve, or concentration at which […] of the maximum effect was observed).

[5] = molecular target: hSTING WT (Homo sapiens, UniProt Q86WV6); assay: Surface plasmon resonance, hSTING WT; assay type: binding; conditions: read-out: hSTING WT SPR (Kd)
[6] = molecular target: hSTING AQ (Homo sapiens, UniProt Q86WV6, G230A/H232R/R293Q); assay: Surface plasmon resonance, hSTING AQ; assay type: binding; conditions: read-out: hSTING AQ SPR (Kd)
[7] = molecular target: T4, hSTING-HAQ haplotype (Homo sapiens, UniProt Q86WV6, G230A/H232R/R293Q/R71H); assay: THP-1-Dual reporter assay (endogenous hSTING-HAQ); assay type: cell-based; conditions: THP-1-Dual cells (hSTING-HAQ), 24 hours
T4 construct: host or cells: THP-1-Dual
Description: as §1, §2

T4 sequence (Q86WV6 whole entry R71H/G230A/H232R/R293Q): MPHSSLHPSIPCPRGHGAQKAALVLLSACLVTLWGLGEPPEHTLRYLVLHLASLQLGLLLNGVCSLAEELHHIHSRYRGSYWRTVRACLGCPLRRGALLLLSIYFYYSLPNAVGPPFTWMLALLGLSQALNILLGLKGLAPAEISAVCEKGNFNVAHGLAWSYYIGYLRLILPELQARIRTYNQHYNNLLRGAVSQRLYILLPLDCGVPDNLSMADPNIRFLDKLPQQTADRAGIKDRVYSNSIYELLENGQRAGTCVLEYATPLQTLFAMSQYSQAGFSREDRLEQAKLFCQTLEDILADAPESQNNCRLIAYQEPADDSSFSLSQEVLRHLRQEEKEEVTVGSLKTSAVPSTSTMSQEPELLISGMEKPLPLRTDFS
T1 sequence (Q86WV6 whole entry H232R): as the sequence (Q86WV6 whole entry R71H/G230A/H232R/R293Q) above, with H71R, A230G, Q293R counted along it
Chain of hSTING WT (Q86WV6 whole entry H232R): as the sequence (Q86WV6 whole entry R71H/G230A/H232R/R293Q) above, with H71R, A230G, Q293R counted along it
Chain of hSTING AQ (Q86WV6 whole entry G230A/H232R/R293Q): as the sequence (Q86WV6 whole entry R71H/G230A/H232R/R293Q) above, with H71R counted along it
T2 sequence (Q86WV6 whole entry): as the sequence (Q86WV6 whole entry R71H/G230A/H232R/R293Q) above, with H71R, A230G, R232H, Q293R counted along it

Row | SMILES | EC50 [1] [nM] | Kd [2] [µM] | EC50 [3] [nM] | EC50 [4] [nM] | Kd [5] [µM] | Kd [6] [µM] | EC50 [7] [nM]
1 | CCn1nc(C)cc1C(=O)Nc1nc2cc(C(N)=O)cc(OC)c2n1C/C=C/Cn1c(N2CCn3nc(C)cc3C2=O)nc2cc(C(N)=O)cc(OCCCN3CC4(CNCCO4)C3)c21 [Compound 5, 1-[(E)-4-[5-Carbamoyl-2-(2-methyl-4-oxo-6,7-dihydropyrazolo[1,5-a]pyrazin-5-yl)-7-[3-(5-oxa-2,8-diazaspiro[3.5]nonan-2-yl)propoxy]benzimidazol-1-yl]but-2-enyl]-2-[(2-ethyl-5-methyl-pyrazole-3-carbonyl)amino]-7-methoxy-benzimidazole-5-carboxamide] | > 150 | ≥ 0.02 | > 150 | > 150 | ≥ 0.02 | ≥ 0.02 | > 150
2 | CCn1nc(C)cc1C(=O)Nc1nc2cc(C(N)=O)cc(OC)c2n1C/C=C/Cn1c(NC(=O)Cc2cc(C)nn2C)nc2cc(C(N)=O)cc(OCCCN3CC4(CNCCO4)C3)c21 [Compound 8] | > 150 | ≥ 0.02 | > 150 | > 150 | ≥ 0.02 | ≥ 0.02 | > 150
3 | CCc1nc(C)oc1C(=O)Nc1nc2cc(C(N)=O)cc(OCCCN3CC4(C3)CN(C(=O)[C@@H](N)CC(C)C)CCO4)c2n1C/C=C/Cn1c(NC(=O)c2cc(C)nn2CC)nc2cc(C(N)=O)cc(OC)c21 [Compound 17] | ≤ 50 | ≤ 0.02 | ≤ 50 | ≤ 50 | ≤ 0.02 | ≤ 0.02 | ≤ 50
4 | CCn1nc(C)cc1C(=O)Nc1nc2cc(C(N)=O)cnc2n1C/C=C/Cn1c(NC(=O)c2cc(C)nn2CC)nc2cc(C(N)=O)cc(OCCCN3CCC(c4nnc5n4CCNC5)CC3)c21 [Compound 21] | 50 to 150 | ≤ 0.02 | 50 to 150 | > 150 | ≤ 0.02 | ≤ 0.02 | > 150
5 | COc1cc(C(N)=O)cc2nc(NC(=O)c3oc(C)nc3C)n(C/C=C/Cn3c(NC(=O)c4oc(C)nc4C)nc4cc(C(N)=O)cc(OCCCN5CCC(c6nnc7n6CCNC7)CC5)c43)c12 [Compound 43, (E)-N-(5-carbamoyl-1-(4-(5-carbamoyl-2-(2,4-dimethyloxazole-5-carboxamido)-7-(3-(4-(5,6,7,8-tetrahydro-[1,2,4]triazolo[4,3-a]pyrazin-3-yl)piperidin-1-yl)propoxy)-1H-benzo[d]imidazol-1-yl)but-2-en-1-yl)-7-methoxy-1H-benzo[d]imidazol-2-yl)-2,4-dimethyloxazole-5-carboxamide] | > 150 |  | > 150 | > 150 |  |  | > 150
6 | CCc1nc(C)sc1C(=O)Nc1nc2cc(C(N)=O)cc(OC)c2n1C/C=C/Cn1c(NC(=O)c2sc(C)nc2CC)nc2cc(C(N)=O)cc(OCCCN3CCC(c4nnc5n4CCNC5)CC3)c21 [Compound 44] | ≤ 50 |  | ≤ 50 | ≤ 50 |  |  | ≤ 50
7 | CCn1nc(C)cc1C(=O)Nc1nc2cc(C(N)=O)cc(OC)c2n1C/C=C/Cn1c(NC(=O)c2cn(C)nc2C2CNC2)nc2cc(C(N)=O)cc(OCCCN3CC4(CCCCO4)C3)c21 [Compound 62] | > 150 |  | > 150 | > 150 |  |  | > 150
8 | CCn1nc(C)cc1C(=O)Nc1nc2cc(C(N)=O)cc(OC)c2n1C/C=C/Cn1c(NC(=O)c2cn(C)nc2CN)nc2cc(C(N)=O)cc(OCCCN3CC4(CCCCO4)C3)c21 [Compound 63, (E)-7-(3-(5-oxa-2-azaspiro[3.5]nonan-2-yl)propoxy)-2-(3-(aminomethyl)-1-methyl-1H-pyrazole-4-carboxamido)-1-(4-(5-carbamoyl-2-(1-ethyl-3-methyl-1H-pyrazole-5-carboxamido)-7-methoxy-1H-benzo[d]imidazol-1-yl)but-2-en-1-yl)-1H-benzo[d]imidazole-5-carboxamide] | > 150 |  | > 150 | > 150 |  |  | > 150
